Values quoted from earlier work in US12150970B2, “Composition for treatment of topical dermatological bacterial skin conditions” (ALPHYN BIOLOGICS, INC., priority 2021, dated 2024).

Tested on: cells
Details: compounds evaluated by Chen

Molecule	effect on cell proliferation / healing (in words)
COc1ccc2c(=O)oc3c(OC)cc(CCN(C)C)c4c(=O)oc1c2c34 [Taspine, taspine]	little healing effects
COc1ccc([C@H]2Oc3c(OC)cc(CCCO)cc3[C@@H]2CO)cc1OC [dimethylcedrusin]	little healing effects
epicatechin	little effect
Oc1cc(O)c2c(c1)O[C@H](c1ccc(O)c(O)c1)[C@@H](O)C2 [Catechin, catechin]	little effect
epigallocatechin	slightly stimulating to cell proliferation
Oc1cc(O)c2c(c1)O[C@H](c1cc(O)c(O)c(O)c1)[C@@H](O)C2 [Gallocatechin, gallocatechin]	slightly stimulating to cell proliferation
